In patent US11912693B2, “Compounds for modulating S1P1 activity and methods of using the same” (TREVENA, INC., priority 2017, dated 2024):

Columns and labels:
[1] = biological target: T1, human sphingosine-1-phosphate receptor 1 (S1P1) (Homo sapiens (Human), UniProt P21453); assay: β-Arrestin2 recruitment assay (PathHunter), S1P1 CHO-K1 cells; format: cell-based; details: for Emax: CHO-K1, efficacy (SPAN) normalized to fingolimod, read-out: hS1P1 B-arrestin2 SPAN
How it was run: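 Enzyme-fragment complementation read-out: agonist-driven β-arrestin2 binding to ProLink-tagged human S1P1 in stable CHO-K1 cells restores β-galactosidase, measured 1 h at room temperature after a 60 min 37° C. compound incubation. Potency as pEC50, efficacy relative to fingolimod (SPAN).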
Target sequence in this assay (P21453 whole entry, looked up, the tested form may be a part): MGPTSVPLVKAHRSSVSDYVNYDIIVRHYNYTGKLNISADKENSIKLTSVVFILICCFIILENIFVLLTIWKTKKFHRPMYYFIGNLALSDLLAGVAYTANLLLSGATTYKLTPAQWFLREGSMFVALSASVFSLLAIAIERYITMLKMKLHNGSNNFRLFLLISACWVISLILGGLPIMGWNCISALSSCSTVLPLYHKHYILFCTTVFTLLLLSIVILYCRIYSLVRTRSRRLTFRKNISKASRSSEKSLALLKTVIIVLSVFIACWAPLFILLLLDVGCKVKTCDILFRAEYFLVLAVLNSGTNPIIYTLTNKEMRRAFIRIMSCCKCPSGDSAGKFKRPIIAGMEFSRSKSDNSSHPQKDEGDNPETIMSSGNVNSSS
Target sequence in this assay (P32121 whole entry partner, looked up, the tested form may be a part): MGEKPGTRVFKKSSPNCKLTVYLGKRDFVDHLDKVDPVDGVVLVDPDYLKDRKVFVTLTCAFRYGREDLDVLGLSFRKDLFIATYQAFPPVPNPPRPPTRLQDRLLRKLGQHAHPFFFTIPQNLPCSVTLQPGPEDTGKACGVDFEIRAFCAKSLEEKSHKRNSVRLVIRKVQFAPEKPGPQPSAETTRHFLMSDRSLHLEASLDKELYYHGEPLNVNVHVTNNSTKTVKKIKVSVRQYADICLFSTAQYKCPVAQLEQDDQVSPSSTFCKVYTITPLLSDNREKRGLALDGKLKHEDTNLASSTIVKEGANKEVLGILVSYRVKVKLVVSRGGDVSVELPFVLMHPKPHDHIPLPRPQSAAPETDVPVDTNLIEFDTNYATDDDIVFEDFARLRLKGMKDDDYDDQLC

[2] = biological target: T1, human sphingosine-1-phosphate receptor 1 (S1P1); assay: Inhibition of cAMP production (HTRF cAMP HiRange), S1P1 CHO-K1 cells; format: cell-based; details: for Emax: CHO-K1, efficacy (SPAN) normalized to fingolimod, read-out: hS1P1 cAMP SPAN
How it was run: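 CHO-K1 cells stably co-expressing human S1P1 (C-terminal Prolink tag) and EA-β-arrestin2 were grown in AssayComplete Media 6 at 37° C. and 5% CO2, plated, and incubated overnight. Agonist-driven inhibition of intracellular cAMP was read by TR-FRET with the HTRF cAMP HiRange kit on a PheraStar reader. Potency is pEC50, and efficacy (SPAN) is normalized to fingolimod.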
Target sequence in this assay (P21453 whole entry, looked up, the tested form may be a part): as the sequence (P21453 whole entry, looked up, the tested form may be a part) above

[3] = β-arrestin2 recruitment, S1P1 CHO-K1 cells
[4] = inhibition of cAMP production, S1P1 CHO-K1 cells

SMILES | Emax [1] [%] | EC50 ([1]; β-arrestin2 recruitment, S1P1 CHO-K1 cells, read-out: hS1P1 B-arrestin2 pEC50 (converted)) [µM] | Emax [2] [%] | EC50 ([2]; inhibition of cAMP production, S1P1 CHO-K1 cells, read-out: hS1P1 cAMP pEC50 (converted)) [µM] | hS1P1 B-arrestin2 pEC50 [1, 3] | hS1P1 cAMP pEC50 [2, 4]
CC(C)n1nnc2cc(-c3nc(-c4cn[nH]c4)no3)ccc21 [Compound 646, 1-(propan-2-yl)-5-[3-(1H-pyrazol-4-yl)-1,2,4-oxadiazol-5-yl]-1H-1,2,3-benzotriazole] | > 75 | > 10 | < 75 | > 0.316 |  | 
N#Cc1cc(-c2nc(-c3ccc4sc(N)nc4c3)no2)ccc1NCC1CC1 [Compound 440, 5-(3-(2-aminobenzo[d]thiazol-5-yl)-1,2,4-oxadiazol-5-yl)-2-((cyclopropylmethyl)amino)benzonitrile] | > 75 |  | > 75 |  | >5 | >6.5
CC(C)n1ncc2cc(-c3nc(-c4cccc5c4OCCC5)no3)ccc21 [Compound 337, 3-chroman-8-yl-5-(1-isopropylindazol-5-yl)-1,2,4-oxadiazole] | > 75 |  | > 75 |  | >5 | >6.5
Cc1ccc(-c2noc(-c3ccc4c(c3)nnn4C(C)C)n2)cn1 [Compound 236, 5-[3-(6-methylpyridin-3-yl)-1,2,4-oxadiazol-5-yl]-1-(propan-2-yl)-1H-1,2,3-benzotriazole] | > 75 |  | < 75 |  | <5 | <6.5
CCC1(CC)CC(=O)c2cc(-c3nc(-c4cccc(O)c4)no3)ccc2O1 [Compound 227, 2,2-diethyl-6-[3-(3-hydroxyphenyl)-1,2,4-oxadiazol-5-yl]chroman-4-one] |  |  |  |  | <5 | >6.5
O=C1CCOc2ccc(-c3nc(-c4cccnc4)no3)cc21 [Compound 102, 6-[3-(pyridin-3-yl)-1,2,4-oxadiazol-5-yl]-3,4-dihydro-2H-1-benzopyran-4-one] | < 75 |  | < 75 |  | <5 | <6.5
CCC1(CC)CC(=O)c2cc(-c3nc(-c4ccc5[nH]cnc5c4)no3)ccc2O1 [Compound 211, 6-(3-(1H-benzo[d]imidazol-5-yl)-1,2,4-oxadiazol-5-yl)-2,2-diethylchroman-4-one] | > 75 |  | < 75 |  | >5 | <6.5
CC(C)CCn1nnc2cc(-c3nc(-c4ccc(C(F)(F)F)c(F)c4)no3)ccc21 [Compound 122, 5-{3-[3-fluoro-4-(trifluoromethyl)phenyl]-1,2,4-oxadiazol-5-yl}-1-(3-methylbutyl)-1H-1,2,3-benzotriazole] | < 75 |  | < 75 |  | <5 | <6.5
COc1ccccc1-c1nc(-c2ccc3c(c2)nnn3C(C)(C)CO)no1 [Compound 623, 2-(5-(5-(2-methoxyphenyl)-1,2,4-oxadiazol-3-yl)-1H-benzo[d][1,2,3]triazol-1-yl)-2-methylpropan-1-ol] | > 75 |  | > 75 |  | <5 | <6.5
CC(C)n1nnc2cc(-c3noc(-c4ncccc4O)n3)ccc21 [Compound 602, 2-{3-[1-(propan-2-yl)-1H-1,2,3-benzotriazol-5-yl]-1,2,4-oxadiazol-5-yl}pyridin-3-ol] |  |  |  |  | <5 | <6.5
FC(F)(F)c1cccc(-c2nc(-c3ccc4c(c3)nnn4C3CCCC3)no2)c1 [Compound 12, 3-(1-cyclopentyl-1H-benzo[d][1,2,3]triazol-5-yl)-5-(3-(trifluoromethyl)phenyl)-1,2,4-oxadiazole] |  |  |  |  | <5 | <6.5
Cc1ccccc1-c1nc(-c2ccc3c(c2)nnn3CC(C)(C)CO)no1 [Compound 505, 2,2-dimethyl-3-(5-(5-(o-tolyl)-1,2,4-oxadiazol-3-yl)-1H-benzo[d][1,2,3]triazol-1-yl)propan-1-ol] |  |  |  |  | <5 | <6.5
CC(C)(CO)Cn1nnc2cc(-c3noc(-c4cnccc4C(F)(F)F)n3)ccc21 [Compound 529, 2,2-dimethyl-3-(5-(5-(4-(trifluoromethyl)pyridin-3-yl)-1,2,4-oxadiazol-3-yl)-1H-benzo[d][1,2,3]triazol-1-yl)propan-1-ol] |  |  |  |  | >5 | <6.5
COc1cccc(-c2noc(-c3ccc4c(c3)nnn4C3CCCC3)n2)n1 [Compound 124, 1-cyclopentyl-5-[3-(6-methoxypyridin-2-yl)-1,2,4-oxadiazol-5-yl]-1H-1,2,3-benzotriazole] | < 75 |  | < 75 |  | <5 | <6.5
CC(C)Oc1ccc(-c2nc(-c3ccc4c(c3)nnn4C3CCCC3)no2)cc1 [Compound 121, 3-(1-cyclopentyl-1H-benzo[d][1,2,3]triazol-5-yl)-5-(4-isopropoxyphenyl)-1,2,4-oxadiazole] | < 75 |  | < 75 |  | <5 | <6.5
c1ccc(-c2noc(-c3ccc4c(c3)nnn4C3CCCC3)n2)cc1 [Compound 7, 1-cyclopentyl-5-(3-phenyl-1,2,4-oxadiazol-5-yl)-1H-1,2,3-benzotriazole] |  |  |  |  | <5 | <6.5
CC(C)n1nnc2cc(-c3noc(C45CC6CC(CC(C6)C4)C5)n3)ccc21 [Compound 200, 5-[5-(adamantan-1-yl)-1,2,4-oxadiazol-3-yl]-1-(propan-2-yl)-1H-1,2,3-benzotriazole] |  |  |  |  | <5 | <6.5
CC(C)n1nnc2cc(-c3noc(C4CCOCC4)n3)ccc21 [Compound 89, 5-[5-(oxan-4-yl)-1,2,4-oxadiazol-3-yl]-1-(propan-2-yl)-1H-1,2,3-benzotriazole] | < 75 |  | < 75 |  | <5 | <6.5
Cc1ccsc1-c1nc(-c2ccc3c(c2)nnn3C(C)(C)CO)no1 [Compound 611, 2-methyl-2-(5-(5-(3-methylthiophen-2-yl)-1,2,4-oxadiazol-3-yl)-1H-benzo[d][1,2,3]triazol-1-yl)propan-1-ol] | < 75 |  | < 75 |  | >5 | >6.5
CC(C)n1nnc2cc(-c3noc(-c4ccc(COc5ccccc5)cc4)n3)ccc21 [Compound 131, 3-(1-isopropyl-1H-benzo[d][1,2,3]triazol-5-yl)-5-(4-(phenoxymethyl)phenyl)-1,2,4-oxadiazole] | < 75 |  | < 75 |  | <5 | <6.5
COc1cccc(OC)c1-c1noc(-c2ccc3c(ccn3C(C)C)c2)n1 [Compound 325, 3-(2,6-dimethoxyphenyl)-5-(1-isopropylindol-5-yl)-1,2,4-oxadiazole] | < 75 |  | < 75 |  | <5 | <6.5
CCC1(CC)CC(=O)c2cc(-c3nc(-c4ccc5c(c4)nnn5C(C)C)ns3)ccc2O1 [Compound 29, 2,2-diethyl-6-(3-(1-isopropyl-1H-benzo[d][1,2,3]triazol-5-yl)-1,2,4-thiadiazol-5-yl)chroman-4-one] |  |  |  |  | <5 | <6.5
Cc1ccsc1-c1noc(-c2ccc3c(c2)nnn3CC(C)(C)O)n1 [Compound 140, 2-methyl-1-{5-[3-(3-methylthiophen-2-yl)-1,2,4-oxadiazol-5-yl]-1H-1,2,3-benzotriazol-1-yl}propan-2-ol] | > 75 |  | > 75 |  | >5 | >6.5
COc1ccncc1-c1nc(-c2ccc3c(c2)nnn3C(C)C)no1 [Compound 605, 3-(1-isopropyl-1H-benzo[d][1,2,3]triazol-5-yl)-5-(4-methoxypyridin-3-yl)-1,2,4-oxadiazole] | > 75 |  | > 75 |  | >5 | >6.5
CC(C)n1ncc2cc(-c3nc(-c4cccc5c4OCO5)no3)ccc21 [Compound 336, 3-(benzo[d][1,3]dioxol-4-yl)-5-(1-isopropyl-1H-indazol-5-yl)-1,2,4-oxadiazole] | < 75 |  | > 75 |  | >5 | >6.5
